Data as given in US11311520B2, “Substituted dihydroimidazopyridinediones as MKNK1 and MKNK2 inhibitors” (Bayer Pharma Aktiengesellschaft, priority 2017, dated 2022).
Where a name gives a salt, the structure may show the parent alone.

These compounds were tested against human full-length MKNK1 (Homo sapiens (Human), UniProt Q9BUB5, T344D) (assay: MKNK1 kinase high ATP assay (TR-FRET)). Details: 2 mM ATP, 15 min preincubation with enzyme, GST-MKNK1 (T344D).
Format: biochemical
Method in brief: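 GST-tagged full-length human MKNK1 (1-424, T344D, baculovirus-expressed) preincubated 15 min at 22 °C with compound, then reacted 30 min at 22 °C with 2 mM ATP and 0.06 μM biotinylated peptide (final) in HEPES pH 7.5. Phospho-substrate by TR-FRET (665/622 nm ratio), normalised to no-inhibitor and no-enzyme controls.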

human full-length MKNK1, sequence (Q9BUB5 other isoform, or with tags, fused parts or gaps T344D): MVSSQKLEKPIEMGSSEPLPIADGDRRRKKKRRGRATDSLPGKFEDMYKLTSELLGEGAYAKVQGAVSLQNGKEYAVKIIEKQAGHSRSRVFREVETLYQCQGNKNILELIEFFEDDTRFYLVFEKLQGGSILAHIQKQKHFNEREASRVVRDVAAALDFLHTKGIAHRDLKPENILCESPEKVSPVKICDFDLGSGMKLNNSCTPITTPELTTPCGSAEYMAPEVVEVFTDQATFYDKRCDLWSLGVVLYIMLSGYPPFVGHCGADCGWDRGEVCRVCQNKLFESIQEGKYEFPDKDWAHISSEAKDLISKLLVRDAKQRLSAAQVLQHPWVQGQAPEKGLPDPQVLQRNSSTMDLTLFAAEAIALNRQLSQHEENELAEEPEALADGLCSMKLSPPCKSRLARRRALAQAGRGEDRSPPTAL

Row | SMILES | IC50 [nM]
1 | Cc1cc(Nc2ncnc3c2CN(S(=O)(=O)C(F)(F)F)C3)c(=O)n2c1C(=O)NC21CCCCC1 [Example 72, 8′-methyl-6′-({6-[(trifluoromethyl)sulfonyl]-6,7-dihydro-5H-pyrrolo[3,4-d]pyrimidin-4-yl}amino)-2′H-spiro[cyclohexane-1,3′-imidazo[1,5-a]pyridine]-1′,5′-dione] | 30.4
2 | Cc1cc(Nc2ncnc3c2CN(S(=O)(=O)CC(F)(F)F)C3)c(=O)n2c1C(=O)NC21CCCCC1 [Example 73, 8′-methyl-6′-({6-[(2,2,2-trifluoroethyl)sulfonyl]-6,7-dihydro-5H-pyrrolo[3,4-d]pyrimidin-4-yl}amino)-2′H-spiro[cyclohexane-1,3′-imidazo[1,5-a]pyridine]-1′,5′-dione] | 168
3 | Cc1cc(Nc2ncnc3sc(C(=O)N4CC(N)C4)cc23)c(=O)n2c1C(=O)NC21CCCC1 [Example 74, 6′-({6-[(3-Aminoazetidin-1-yl)carbonyl]thieno[2,3-d]pyrimidin-4-yl}amino)-8′-methyl-2′H-spiro[cyclopentane-1,3′-imidazo[1,5-a]pyridine]-1′,5′-dione] | 1.5
4 | CCNC(=O)N1Cc2ncnc(Nc3cc(C)c4n(c3=O)C3(CCCCC3)NC4=O)c2C1 [Example 75, N-Ethyl-4-[(8′-methyl-1′,5′-dioxo-1′,5′-dihydro-2′H-spiro[cyclohexane-1,3′-imidazo[1,5-a]pyridin]-6′-yl)amino]-5,7-dihydro-6H-pyrrolo[3,4-d]pyrimidine-6-carboxamide] | 11.9
5 | CCOC(=O)N1Cc2ncnc(Nc3cc(C)c4n(c3=O)C3(CCCCC3)NC4=O)c2C1 [Example 76, Ethyl 4-[(8′-methyl-1′,5′-dioxo-1′,5′-dihydro-2′H-spiro[cyclohexane-1,3′-imidazo[1,5-a]pyridin]-6′-yl)amino]-5,7-dihydro-6H-pyrrolo[3,4-d]pyrimidine-6-carboxylate] | 17.7
6 | Cc1cc(Nc2ncnc3c2CN(C(=O)[C@@H]2CCC(=O)N2)C3)c(=O)n2c1C(=O)NC21CCCCC1 [Example 77, 8′-Methyl-6′-[(6-{[(2S)-5-oxopyrrolidin-2-yl]carbonyl}-6,7-dihydro-5H-pyrrolo[3,4-cl]pyrimidin-4-yl)amino]-2′H-spiro[cyclohexane-1,3′-imidazo[1,5-a]pyridine]-1′,5′-dione] | 55.9
7 | CC(=O)N1Cc2ncnc(Nc3cc(C)c4n(c3=O)C3(CCCCC3)NC4=O)c2C1 [Example 78, 6′-[(6-Acetyl-6,7-dihydro-5H-pyrrolo[3,4-d]pyrimidin-4-yl)amino]-8′-methyl-2′H-spiro[cyclohexane-1,3′-imidazo[1,5-a]pyridine]-1′,5′-dione] | 37.9
8 | Cc1cc(Nc2ncnc3c2CN(S(=O)(=O)c2ccccn2)C3)c(=O)n2c1C(=O)NC21CCCCC1 [Example 79, 8′-Methyl-6′-{[6-(pyridin-2-ylsulfonyl)-6,7-dihydro-5H-pyrrolo[3,4-d]pyrimidin-4-yl]amino}-2′H-spiro[cyclohexane-1,3′-imidazo[1,5-a]pyridine]-1′,5′-dione] | 122
9 | Cc1cc(Nc2ncnc3sc(C(=O)O)cc23)c(=O)n2c1C(=O)NC21CCC(F)(F)CC1 [Example 80, 4-[(4,4-Difluoro-8′-methyl-1′,5′-dioxo-1′,5′-dihydro-2′H-spiro[cyclohexane-1,3′-imidazo[1,5-a]pyridin]-6′-yl)amino]thieno[2,3-d]pyrimidine-6-carboxylic acid] | 126
10 | Cc1cc(Nc2ncnc3sc(C(=O)NCCN(C)C)cc23)c(=O)n2c1C(=O)NC21CCC(F)(F)CC1 [Example 81, 4-[(4,4-Difluoro-8′-methyl-1′,5′-dioxo-1′,5′-dihydro-2′H-spiro[cyclohexane-1,3′-imidazo[1,5-a]pyridin]-6′-yl)amino]-N-[2-(dimethylamino)ethyl]thieno[2,3-d]pyrimidine-6-carboxamide] | 5
11 | Cc1cc(Nc2ncnc3sc(C(=O)N(C)CCN(C)C)cc23)c(=O)n2c1C(=O)NC21CCC(F)(F)CC1 [Example 82, 4-[(4,4-Difluoro-8′-methyl-1′,5′-dioxo-1′,5′-dihydro-2′H-spiro[cyclohexane-1,3′-imidazo[1,5-a]pyridin]-6′-yl)amino]-N-[2-(dimethylamino)ethyl]-N-methylthieno[2,3-d]pyrimidine-6-carboxamide] | 18.3
12 | Cc1cc(Nc2ncnc3sc(C(=O)N4CC(NC(=O)OC(C)(C)C)C4)cc23)c(=O)n2c1C(=O)NC21CCC(F)(F)CC1 [Example 83, tert-Butyl [1-({4-[(4,4-difluoro-8′-methyl-1′,5′-dioxo-1′,5′-dihydro-2′H-spiro[cyclohexane-1,3′-imidazo[1,5-a]pyridin]-6′-yl)amino]thieno[2,3-d]pyrimidin-6-yl}carbonyl)azetidin-3-yl]carbamate] | 12.2
13 | Cc1cc(Nc2ncnc3sc(C(=O)N4CC(N)C4)cc23)c(=O)n2c1C(=O)NC21CCC(F)(F)CC1 [Example 84, 6′-({6-[(3-Aminoazetidin-1-yl)carbonyl]thieno[2,3-d]pyrimidin-4-yl}amino)-4,4-difluoro-8′-methyl-2′H-spiro[cyclohexane-1,3′-imidazo[1,5-a]pyridine]-1′,5′-dione] | 10.8
14 | Cc1cc(Nc2ncnc3sc(C(=O)N4CC(C#N)C4)cc23)c(=O)n2c1C(=O)NC21CCC(F)(F)CC1 [Example 85, 1-({4-[(4,4-Difluoro-8′-methyl-1′,5′-dioxo-1′,5′-dihydro-2′H-spiro[cyclohexane-1,3′-imidazo[1,5-a]pyridin]-6′-yl)amino]thieno[2,3-d]pyrimidin-6-yl}carbonyl)azetidine-3-carbonitrile] | 25.2
15 | Cc1cc(Nc2ncnc3sc(C(=O)N4CC[C@@H](N(C)C)C4)cc23)c(=O)n2c1C(=O)NC21CCC(F)(F)CC1 [Example 86, 6′-[(6-{[(3R)-3-(Dimethylamino)pyrrolidin-1-yl]carbonyl}thieno[2,3-d]pyrimidin-4-yl)amino]-4,4-difluoro-8′-methyl-2′H-spiro[cyclohexane-1,3′-imidazo[1,5-a]pyridine]-1′,5′-dione] | 11.9
16 | Cc1cc(Nc2ncnc3sc(C(=O)N4CCC(N(C)C)CC4)cc23)c(=O)n2c1C(=O)NC21CCC(F)(F)CC1 [Example 87, 6′-[(6-{[4-(Dimethylamino)piperidin-1-yl]carbonyl}thieno[2,3-d]pyrimidin-4-yl)amino]-4,4-difluoro-8′-methyl-2′H-spiro[cyclohexane-1,3′-imidazo[1,5-a]pyridine]-1′,5′-dione] | 23.1
17 | Cc1cc(Nc2ncnc3sc(C(=O)N4C[C@H]5C[C@@H]4CO5)cc23)c(=O)n2c1C(=O)NC21CCC(F)(F)CC1 [Example 88, 4,4-Difluoro-8′-methyl-6′-({6-[(1R,4R)-2-oxa-5-azabicyclo[2.2.1]hept-5-ylcarbonyl]thieno[2,3-d]pyrimidin-4-yl}amino)-2′H-spiro[cyclohexane-1,3′-imidazo[1,5-a]pyridine]-1′,5′-dione] | 13.5
18 | Cc1cc(Nc2ncnc3sccc23)c(=O)n2c1C(=O)NC21CCC(F)(F)CC1 [Example 89, 4,4-Difluoro-8′-methyl-6′-(thieno[2,3-d]pyrimidin-4-ylamino)-2′H-spiro[cyclohexane-1,3′-imidazo[1,5-a]pyridine]-1′,5′-dione] | 12.8
19 | Cc1cc(Nc2ncnc3[nH]ccc23)c(=O)n2c1C(=O)NC21CCC(F)(F)CC1 [Example 90, 4,4-Difluoro-8′-methyl-6′-(7H-pyrrolo[2,3-d]pyrimidin-4-ylamino)-2′H-spiro[cyclohexane-1,3′-imidazo[1,5-a]pyridine]-1′,5′-dione] | 0.7
20 | Cc1cc(Nc2ncnc3sc(C(=O)O)c(C)c23)c(=O)n2c1C(=O)NC21CCC(F)(F)CC1 [Example 93, 4-[(4,4-Difluoro-8′-methyl-1′,5′-dioxo-1′,5′-dihydro-2′H-spiro[cyclohexane-1,3′-imidazo[1,5-a]pyridin]-6′-yl)amino]-5-methylthieno[2,3-d]pyrimidine-6-carboxylic acid] | 42
21 | Cc1cc(Nc2ncnc(N)n2)c(=O)n2c1C(=O)NC21CCC(F)(F)CC1 [Example 94, 6′-[(4-Amino-1,3,5-triazin-2-yl)amino]-4,4-difluoro-8′-methyl-2′H-spiro[cyclohexane-1,3′-imidazo[1,5-a]pyridine]-1′,5′-dione] | 27.8
22 | Cc1cc(Nc2ncnc3sc(C(=O)O)c(C)c23)c(=O)n2c1C(=O)NC21CCCC1 [Example 95, 5-Methyl-4-[(8′-methyl-1′,5′-dioxo-1′,5′-dihydro-2′H-spiro[cyclopentane-1,3′-imidazo[1,5-a]pyridin]-6′-yl)amino]thieno[2,3-d]pyrimidine-6-carboxylic acid] | 5.8
23 | Cc1cc(Nc2ncnc3sc(C(=O)N4C[C@H]5C[C@@H]4CO5)cc23)c(=O)n2c1C(=O)NC21CCCC1 [Example 96, 8′-Methyl-6′-({6-[(1R,4R)-2-oxa-5-azabicyclo[2.2.1]hept-5-ylcarbonyl]thieno[2,3-d]pyrimidin-4-yl}amino)-2′H-spiro[cyclopentane-1,3′-imidazo[1,5-a]pyridine]-1′,5′-dione] | 3.9

Same assay, conditions: 2 mM ATP, 15 min preincubation with enzyme, GST-MKNK1 (T344D), hydrochloride

Row | SMILES | IC50 [nM]
24 | Cc1cc(Nc2ncnc3[nH]ccc23)c(=O)n2c1C(=O)NC21CCC(F)(F)CC1 [Example 92, 4,4-Difluoro-8′-methyl-6′-(7H-pyrrolo[2,3-d]pyrimidin-4-ylamino)-2′H-spiro[cyclohexane-1,3′-imidazo[1,5-a]pyridine]-1′,5′-dione hydrochloride] | 1.2

Same assay, conditions: 2 mM ATP, 15 min preincubation with enzyme, GST-MKNK1 (T344D), methanesulfonate

Row | SMILES | IC50 [nM]
25 | Cc1cc(Nc2ncnc3[nH]ccc23)c(=O)n2c1C(=O)NC21CCC(F)(F)CC1 [Example 91, 4,4-Difluoro-8′-methyl-6′-(7H-pyrrolo[2,3-d]pyrimidin-4-ylamino)-2′H-spiro[cyclohexane-1,3′-imidazo[1,5-a]pyridine]-1′,5′-dione methanesulfonate] | 1.1
